Assay results taken from ChEMBL document CHEMBL1629695, “A novel polymyxin derivative that lacks the fatty acid tail and carries only three positive charges has strong synergism with agents excluded by the intact outer membrane” (Antimicrob Agents Chemother, 2010).
Values after ≈ are worked out from the molar mass of the structure shown. Values belong to the compound of their own block, whether it stands above or below them. Active and inactive are the calls of the source. No cut-off for these calls is given here. Bridge positions count the residues as written; N and C are the ends. Square brackets hold non-standard residues; d marks the D form. Peptide text beside a SMILES is read from it. Dab = NCC[C@H](N)C(=O)O

Legend:
Escherichia coli [1] = assay: Ratio of MIC for Escherichia coli ATCC 25922 to MIC for Escherichia coli ATCC 25922 in presence of 4 ug/ml of NAB741; assay type: functional
Klebsiella pneumoniae [2] = assay: Antimicrobial activity against in Klebsiella pneumoniae ATCC 13883 in presence of NAB741; assay type: functional
Escherichia coli [3] = assay: Antimicrobial activity against Escherichia coli ATCC 25922 in presence of 2 ug/ml NAB741; assay type: functional
Escherichia coli [4] = assay: Antimicrobial activity against in Escherichia coli IH3080 in presence of NAB741; assay type: functional
Acinetobacter baumannii [5] = assay: Antimicrobial activity against in Acinetobacter baumannii ATCC 19606 in presence of NAB741; assay type: functional
Klebsiella pneumoniae [6] = assay: Antimicrobial activity against Klebsiella pneumoniae ATCC 13883 by Etest method; assay type: functional
Escherichia coli [7] = assay: Antimicrobial activity against Escherichia coli ATCC 25922 in presence of 32 ug/ml NAB741; assay type: functional
Escherichia coli [8] = assay: Antimicrobial activity against Escherichia coli ATCC 25922 in presence of 8 ug/ml NAB741; assay type: functional
Enterobacter cloacae [9] = assay: Antimicrobial activity against Enterobacter cloacae ATCC 23355 by Etest method; assay type: functional
Enterobacter cloacae [10] = assay: Antimicrobial activity against in Enterobacter cloacae ATCC 23355 in presence of NAB741; assay type: functional
Escherichia coli [11] = assay: Antimicrobial activity against Escherichia coli ATCC 25922 by Etest method; assay type: functional
Escherichia coli [12] = assay: Antimicrobial activity against Escherichia coli ATCC 25922 by Etest method in presence of 4 ug/ml NAB741; assay type: functional
Escherichia coli [13] = assay: Antimicrobial activity against Escherichia coli ATCC 25922 in presence of […] ug/ml NAB741; assay type: functional
Enterobacter cloacae [14] = assay: Antimicrobial activity against Enterobacter cloacae ATCC 23355 by Etest method in presence of 4 ug/ml NAB741; assay type: functional
Escherichia coli [15] = assay: Antimicrobial activity against Escherichia coli ATCC 25922 in presence of 4 ug/ml NAB741; assay type: functional
Escherichia coli [16] = assay: Antimicrobial activity against Escherichia coli ATCC 25922 by Etest method in presence of 2 ug/ml NAB741; assay type: functional
Escherichia coli [17] = assay: Ratio of MIC for Escherichia coli IH3080 to MIC for Escherichia coli IH3080 in presence of 4 ug/ml of NAB741; assay type: functional
Enterobacter cloacae [18] = assay: Antimicrobial activity against Enterobacter cloacae ATCC 23355 by Etest method in presence of 2 ug/ml NAB741; assay type: functional
Acinetobacter baumannii [19] = assay: Antimicrobial activity against Acinetobacter baumannii ATCC 19606 by Etest method; assay type: functional
Acinetobacter baumannii [20] = assay: Ratio of MIC for Acinetobacter baumannii ATCC 19606 to MIC for Acinetobacter baumannii ATCC 19606 in presence of 4 ug/ml of NAB741; assay type: functional
Escherichia coli [21] = assay: Antimicrobial activity against Escherichia coli ATCC 25922; assay type: functional
Klebsiella pneumoniae [22] = assay: Antimicrobial activity against Klebsiella pneumoniae ATCC 13883 by Etest method in presence of 4 ug/ml NAB741; assay type: functional
Escherichia coli [23] = assay: Antimicrobial activity against in Escherichia coli ATCC 25922 in presence of NAB741; assay type: functional
Escherichia coli [24] = assay: Antimicrobial activity against Escherichia coli IH3080 by Etest method in presence of 4 ug/ml NAB741; assay type: functional
Klebsiella pneumoniae [25] = assay: Antimicrobial activity against Klebsiella pneumoniae ATCC 13883 by Etest method in presence of 2 ug/ml NAB741; assay type: functional
Escherichia coli [26] = assay: Antimicrobial activity against Escherichia coli IH3080 by Etest method in presence of 2 ug/ml NAB741; assay type: functional
Acinetobacter baumannii [27] = assay: Antimicrobial activity against Acinetobacter baumannii ATCC 19606 by Etest method in presence of 2 ug/ml NAB741; assay type: functional
Klebsiella pneumoniae [28] = assay: Ratio of MIC for Klebsiella pneumoniae ATCC 13883 to MIC for Klebsiella pneumoniae ATCC 13883 in presence of 4 ug/ml of NAB741; assay type: functional
Escherichia coli [29] = assay: Antimicrobial activity against Escherichia coli IH3080 by Etest method; assay type: functional
Enterobacter cloacae [30] = assay: Ratio of MIC for Enterobacter cloacae ATCC 23355 to MIC for Enterobacter cloacae ATCC 23355 in presence of 4 ug/ml of NAB741; assay type: functional
Acinetobacter baumannii [31] = assay: Antimicrobial activity against Acinetobacter baumannii ATCC 19606 by Etest method in presence of 4 ug/ml NAB741; assay type: functional
[32] = (§1) Half-life in Sprague-Dawley rat at 1 mg/kg, iv; assay type: ADME, organism-based; parameters: dose 1 mg/kg, route intravenous; details: Sprague-Dawley, in vivo
Escherichia coli [33] = assay: Antimicrobial activity against Escherichia coli IH3080 assessed as zone of inhibition at 10 ug after 18 hrs by disk diffusion method; assay type: functional
Pseudomonas aeruginosa [34] = assay: Antimicrobial activity against Pseudomonas aeruginosa ATCC 27853 assessed as zone of inhibition at 10 ug after 18 hrs by disk diffusion method; assay type: functional
V79 = assay: Cytotoxicity against Chinese hamster V79 cells at 0.25 ug/ml to 128 ug/ml after 24 hrs; assay type: cell-based, Cricetulus griseus; details: v79, 24 h
Escherichia coli [35] = assay: Antimicrobial activity against Escherichia coli F19; assay type: functional
[36] = Plasma concentration in Sprague-Dawley rat at 1 mg/kg, iv administered after 10 minutes; assay type: ADME, organism-based; parameters: dose 1 mg/kg, route intravenous
[37] = (§2) Drug level in Sprague-Dawley rat urine at 1 mg/kg, iv; assay type: ADME, organism-based; parameters: dose 1 mg/kg, route intravenous; details: Sprague-Dawley, urine, read-out: Drug uptake
Escherichia coli [38] = assay: Antimicrobial activity against Escherichia coli IH3080 assessed as zone of inhibition at 10 ug after 18 hrs by disk diffusion method in presence of 1 ug/ml rifampin; assay type: functional
[39] = Renal clearance in Sprague-Dawley rat at 1 mg/kg, iv; assay type: ADME, organism-based, Kidney; parameters: dose 1 mg/kg, route intravenous; details: in vivo, read-out: CL_renal
Pseudomonas aeruginosa [40] = assay: Antimicrobial activity against Pseudomonas aeruginosa ATCC 27853 assessed as zone of inhibition at 10 ug after 18 hrs by disk diffusion method in presence of 1 ug/ml rifampin; assay type: functional
Acinetobacter baumannii [41] = assay: Antimicrobial activity against Acinetobacter baumannii ATCC 19606 assessed as zone of inhibition at 10 ug after 18 hrs by disk diffusion method; assay type: functional
[42] = (§3) Volume of distribution in Sprague-Dawley rat at 1 mg/kg, iv; assay type: ADME, organism-based; parameters: dose 1 mg/kg, route intravenous; details: Sprague-Dawley, in vivo
Acinetobacter baumannii [43] = assay: Antimicrobial activity against Acinetobacter baumannii ATCC 19606 assessed as zone of inhibition at 10 ug after 18 hrs by disk diffusion method in presence of 1 ug/ml rifampin; assay type: functional
[44] = Total body clearance in Sprague-Dawley rat at 1 mg/kg, iv; assay type: ADME, organism-based; parameters: dose 1 mg/kg, route intravenous; details: in vivo
Enterobacter cloacae [45] = assay: Antimicrobial activity against Enterobacter cloacae ATCC 23355 at 16 ug/ml; assay type: functional, organism-based
Rattus norvegicus [46] = assay: as §1; assay type: ADME, organism-based; parameters: dose 1 mg/kg, route intravenous; details: in vivo
Rattus norvegicus [47] = assay: as §2; assay type: ADME, organism-based; parameters: dose 1 mg/kg, route intravenous; details: in vivo
Rattus norvegicus [48] = assay: as §3; assay type: ADME, organism-based; parameters: dose 1 mg/kg, route intravenous; details: in vivo

MIC (Escherichia coli [3]): 32 µg/mL
MIC (Klebsiella pneumoniae [6]): 12 µg/mL (≈ 16 µM)
MIC (Escherichia coli [7]): 0.063 µg/mL
MIC (Escherichia coli [8]): 0.5 µg/mL
MIC (Enterobacter cloacae [9]): 48 µg/mL (≈ 64.2 µM)
MIC (Escherichia coli [11]): 16 µg/mL (≈ 21.4 µM)
MIC (Escherichia coli [12]): 0.094 µg/mL
MIC (Escherichia coli [13]): 0.25 µg/mL
MIC (Enterobacter cloacae [14]): 0.5 µg/mL
MIC (Escherichia coli [15]): 1 µg/mL
MIC (Escherichia coli [16]): 0.5 µg/mL
MIC (Enterobacter cloacae [18]): 16 µg/mL
MIC (Acinetobacter baumannii [19]): 8 µg/mL (≈ 10.7 µM)
MIC (Escherichia coli [21]): ≥ 64 µg/mL
MIC (Klebsiella pneumoniae [22]): 1 µg/mL
MIC (Escherichia coli [24]): 0.125 µg/mL
MIC (Klebsiella pneumoniae [25]): 4 µg/mL
MIC (Escherichia coli [26]): 1 µg/mL
MIC (Acinetobacter baumannii [27]): 0.75 µg/mL
MIC (Escherichia coli [29]): 12 µg/mL (≈ 16 µM)
MIC (Acinetobacter baumannii [31]): 0.5 µg/mL
Compound: CC[C@H]1OC(=O)[C@H](C)[C@@H](O[C@H]2C[C@@](C)(OC)[C@@H](O)[C@H](C)O2)[C@H](C)[C@@H](O[C@@H]2O[C@H](C)C[C@H](N(C)C)[C@H]2O)[C@](C)(OC)C[C@@H](C)C(=O)[C@H](C)[C@@H](O)[C@]1(C)O [CLARITHROMYCIN]
Ratio (Escherichia coli [1]): 84
fractional inhibitory concentration index (FICI) (Klebsiella pneumoniae [2]): 0.167
fractional inhibitory concentration index (FICI) (Escherichia coli [4]): 0.126
fractional inhibitory concentration index (FICI) (Acinetobacter baumannii [5]): 0.156
fractional inhibitory concentration index (FICI) (Enterobacter cloacae [10]): 0.135
Ratio (Escherichia coli [17]): 64
Ratio (Acinetobacter baumannii [20]): 12
fractional inhibitory concentration index (FICI) (Escherichia coli [23]): 0.094
Ratio (Klebsiella pneumoniae [28]): 6
Ratio (Enterobacter cloacae [30]): 64

half-life [32]: 32.7 min
MIC (Escherichia coli [35]): 16 µg/mL (≈ 16.1 µM)
concentration at 10 min [36]: 3130 ng/mL
dose excreted [37]: 50.9%
CL renal [39]: 3.78 mL/min/kg
Vd [42]: 0.243 L/kg
clearance [44]: 7.39 mL/min/kg
Compound: CC(=O)N[C@H](C(=O)N[C@H](CO)C(=O)N[C@H]1CCNC(=O)[C@H]([C@@H](C)O)NC(=O)[C@H](CCN)NC(=O)[C@H](CCN)NC(=O)[C@H](CC(C)C)NC(=O)[C@@H](Cc2ccccc2)NC(=O)[C@H](CCN)NC1=O)[C@@H](C)O [SPR-741] (Ac-T[dS][Dab][Dab][dF]L[Dab][Dab]T; lactam 3-C)
inhibition zone (IZ) (Escherichia coli [33]): 12 mm2
inhibition zone (IZ) (Pseudomonas aeruginosa [34]): 4 mm2
Activity (V79): Non-toxic
inhibition zone (IZ) (Escherichia coli [38]): 230 mm2
inhibition zone (IZ) (Pseudomonas aeruginosa [40]): 20 mm2
inhibition zone (IZ) (Acinetobacter baumannii [41]): 9 mm2
inhibition zone (IZ) (Acinetobacter baumannii [43]): 223 mm2
Activity (Enterobacter cloacae [45]): Active

t1/2 (Rattus norvegicus [46]): 74.6 min
Drug uptake (Rattus norvegicus [47]): 0.18%
Vd (Rattus norvegicus [48]): 0.496 L/kg
Compound: COLISTIN
